Results as given in patent publication US10654808B2, “Tyrosine kinase inhibitor and pharmaceutical composition comprising same” (GUANGDONG RAYNOVENT BIOTECH CO., LTD., priority 2015, dated 2020).
pIC50: −log10 of the molar value.

Experiments:
Format in all cases: biochemical
PDGFRB = target: T1, PDGFRB (Homo sapiens, UniProt P09619); assay: Z'-LYTE in vitro enzyme activity assay, PDGFRB; details: 100 μM ATP, 60 minutes, room temperature; read-out: IC50 detected by Z'-LYTE, PDGFRB
T1 construct: purchased Millipore
T1 sequence (P09619 33-1106): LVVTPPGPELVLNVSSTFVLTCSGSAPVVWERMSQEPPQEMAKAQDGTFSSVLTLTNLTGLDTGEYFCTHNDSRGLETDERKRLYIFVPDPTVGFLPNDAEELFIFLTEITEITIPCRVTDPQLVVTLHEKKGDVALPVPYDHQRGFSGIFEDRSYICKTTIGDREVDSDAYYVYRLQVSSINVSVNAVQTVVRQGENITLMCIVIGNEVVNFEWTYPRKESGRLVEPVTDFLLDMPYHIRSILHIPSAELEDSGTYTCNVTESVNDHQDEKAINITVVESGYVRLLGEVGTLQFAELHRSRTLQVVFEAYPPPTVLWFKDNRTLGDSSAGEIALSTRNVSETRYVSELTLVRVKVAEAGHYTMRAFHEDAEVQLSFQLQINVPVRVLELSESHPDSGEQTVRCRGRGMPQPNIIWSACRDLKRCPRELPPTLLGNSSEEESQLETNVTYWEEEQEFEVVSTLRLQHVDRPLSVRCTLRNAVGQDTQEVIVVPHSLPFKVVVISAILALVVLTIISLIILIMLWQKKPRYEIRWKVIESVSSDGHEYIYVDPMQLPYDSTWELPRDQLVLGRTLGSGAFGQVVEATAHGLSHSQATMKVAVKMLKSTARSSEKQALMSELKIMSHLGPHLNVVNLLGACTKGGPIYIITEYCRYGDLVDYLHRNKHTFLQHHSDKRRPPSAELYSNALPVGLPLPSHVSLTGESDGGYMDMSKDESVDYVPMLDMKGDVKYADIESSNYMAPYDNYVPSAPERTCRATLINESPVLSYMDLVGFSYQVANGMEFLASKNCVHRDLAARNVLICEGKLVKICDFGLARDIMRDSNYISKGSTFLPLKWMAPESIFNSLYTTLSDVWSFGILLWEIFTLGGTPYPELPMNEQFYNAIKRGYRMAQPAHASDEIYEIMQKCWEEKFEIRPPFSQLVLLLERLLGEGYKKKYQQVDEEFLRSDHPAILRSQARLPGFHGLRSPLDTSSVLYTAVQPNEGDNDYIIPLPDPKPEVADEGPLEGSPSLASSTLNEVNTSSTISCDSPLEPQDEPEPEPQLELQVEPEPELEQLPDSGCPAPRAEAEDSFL
Procedure: (§1) The enzyme activity was measured by Z′-LYTE™ Detection Kinase Assay. The IC50 value of the compounds was used as an index to evaluate the inhibitory effect of the compounds on VEGFR2, FGFR1 and PDGFRB.
(§2) Recombinant human VEGFR2 and FGFR1 proteases were purchased from Life technology, PDGFRB Protease was purchased from Millipore.
(§3) Z-LYTE™ Kit Tyr1 and Tyr4 were purchased from Life technology. Multi-microplate reader, Envision (PerkinElmer) read board was used.
(§4) The test compounds were diluted 3 times with a concentration gradient, the final concentration was from 10 μM to 0.17 nM with a total of 11 concentrations, and each concentration had two parallel holes; the content of DMSO in the assay was 1%.
(§5) 40 nM PDGFRB protein kinase, 2 μM Tyr4 peptide, 100 μM ATP, 50 mM HEPES (pH 7.5), 10 mM MgCl2, 1 mM EGTA, 0.01% BRIJ-35, 2 mM MnCl2, 1 mM DTT. The detector plate was Black Proxiplate 384-Plus plate (PerkinElmer), the reaction was performed at room temperature for 60 minutes, and the reaction system was 10 μl.
(§6) The reaction was stopped by adding 5 μl of DV reagent B (1:128) to the kinase reaction solution and incubated at 23° C. for 60 minutes. The Envision instrument was used to read the plate.
(§7) The data was converted to phosphorylation rate and inhibition rate and the 4 parameter curve fitting (Model 205 in XLFIT5, iDBS) was used to get IC50 data of the compounds.

VEGFR2 = target: T2, VEGFR2 (Homo sapiens, UniProt P35968); assay: Z'-LYTE in vitro enzyme activity assay, VEGFR2; details: 100 μM ATP, 60 minutes, room temperature; read-out: IC50 detected by Z'-LYTE, VEGFR2
T2 construct: purchased Life technology
T2 sequence (P35968 20-1356): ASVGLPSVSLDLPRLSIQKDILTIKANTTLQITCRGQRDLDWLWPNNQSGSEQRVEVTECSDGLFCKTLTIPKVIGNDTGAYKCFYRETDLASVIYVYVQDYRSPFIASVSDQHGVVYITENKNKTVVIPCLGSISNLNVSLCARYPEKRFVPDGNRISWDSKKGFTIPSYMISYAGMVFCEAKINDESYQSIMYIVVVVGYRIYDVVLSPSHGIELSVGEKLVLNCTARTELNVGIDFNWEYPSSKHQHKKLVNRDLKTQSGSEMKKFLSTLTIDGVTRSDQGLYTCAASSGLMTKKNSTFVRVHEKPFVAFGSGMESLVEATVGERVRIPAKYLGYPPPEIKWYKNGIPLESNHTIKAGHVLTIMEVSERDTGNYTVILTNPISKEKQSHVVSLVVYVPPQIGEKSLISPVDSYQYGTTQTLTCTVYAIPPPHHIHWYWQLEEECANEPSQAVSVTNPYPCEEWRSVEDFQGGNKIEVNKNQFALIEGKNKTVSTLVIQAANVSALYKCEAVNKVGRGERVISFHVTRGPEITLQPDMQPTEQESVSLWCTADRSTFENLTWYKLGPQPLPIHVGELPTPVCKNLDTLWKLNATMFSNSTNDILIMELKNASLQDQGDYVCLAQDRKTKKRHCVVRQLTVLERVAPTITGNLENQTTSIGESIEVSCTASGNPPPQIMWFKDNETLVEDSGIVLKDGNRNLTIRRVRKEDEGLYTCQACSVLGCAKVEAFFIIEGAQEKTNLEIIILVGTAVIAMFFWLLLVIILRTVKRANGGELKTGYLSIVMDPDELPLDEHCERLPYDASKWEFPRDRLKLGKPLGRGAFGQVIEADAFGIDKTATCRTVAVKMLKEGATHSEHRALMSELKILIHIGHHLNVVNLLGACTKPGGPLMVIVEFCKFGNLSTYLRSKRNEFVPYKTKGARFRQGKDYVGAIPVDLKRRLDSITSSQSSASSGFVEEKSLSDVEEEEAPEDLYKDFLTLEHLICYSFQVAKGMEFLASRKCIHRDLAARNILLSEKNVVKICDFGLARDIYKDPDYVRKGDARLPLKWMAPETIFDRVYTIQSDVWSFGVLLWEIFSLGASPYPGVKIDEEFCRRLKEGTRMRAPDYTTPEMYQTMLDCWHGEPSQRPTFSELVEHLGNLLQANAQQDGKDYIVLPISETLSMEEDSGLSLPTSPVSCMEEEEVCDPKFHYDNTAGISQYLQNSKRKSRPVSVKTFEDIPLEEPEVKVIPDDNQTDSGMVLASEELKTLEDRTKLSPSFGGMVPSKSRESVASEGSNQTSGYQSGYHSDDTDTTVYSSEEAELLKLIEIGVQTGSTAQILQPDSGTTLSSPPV
Procedure: as §1, §2, §3, §4
3 nM VEGFR2 protein kinase, 2 μM Tyr1 peptide, 100 μM ATP, 50 mM HEPES (pH 7.5), 10 mM MgCl2, 1 mM EGTA, 0.01% BRIJ-35. The detector plate was Black Proxiplate 384-Plus plate (PerkinElmer), the reaction was performed at room temperature for 60 minutes, and the reaction system was 10 μl.
as §6, §7

FGFR1 = target: T3, FGFR1 (Homo sapiens, UniProt P11362); assay: Z'-LYTE in vitro enzyme activity assay, FGFR1; details: 25 μM ATP, 60 minutes, room temperature; read-out: IC50 detected by Z'-LYTE, FGFR1
T3 construct: purchased Life technology
T3 sequence (P11362 22-822): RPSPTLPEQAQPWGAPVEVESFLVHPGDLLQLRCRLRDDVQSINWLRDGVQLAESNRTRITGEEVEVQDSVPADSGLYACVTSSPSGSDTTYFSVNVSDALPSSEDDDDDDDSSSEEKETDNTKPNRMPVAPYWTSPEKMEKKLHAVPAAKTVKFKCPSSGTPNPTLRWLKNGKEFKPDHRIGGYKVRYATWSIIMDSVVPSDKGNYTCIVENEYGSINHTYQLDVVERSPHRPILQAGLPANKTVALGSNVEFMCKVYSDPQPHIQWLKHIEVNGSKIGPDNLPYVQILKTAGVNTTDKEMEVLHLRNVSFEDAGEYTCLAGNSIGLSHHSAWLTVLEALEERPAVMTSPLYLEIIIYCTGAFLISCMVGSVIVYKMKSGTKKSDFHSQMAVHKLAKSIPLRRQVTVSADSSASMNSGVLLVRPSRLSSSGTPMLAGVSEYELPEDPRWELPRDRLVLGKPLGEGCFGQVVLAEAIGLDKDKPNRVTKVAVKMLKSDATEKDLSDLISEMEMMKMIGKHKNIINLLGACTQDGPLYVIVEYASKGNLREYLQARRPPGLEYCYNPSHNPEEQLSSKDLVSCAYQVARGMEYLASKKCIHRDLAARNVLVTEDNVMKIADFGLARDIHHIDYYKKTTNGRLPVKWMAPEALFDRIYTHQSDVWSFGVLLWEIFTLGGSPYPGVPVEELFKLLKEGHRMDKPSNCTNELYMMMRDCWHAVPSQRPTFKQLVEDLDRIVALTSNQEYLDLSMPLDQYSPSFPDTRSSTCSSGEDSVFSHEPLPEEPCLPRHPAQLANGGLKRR
Procedure: as §1, §2, §3, §4
as §5, with “1” for “40”, “FGFR1” for “PDGFRB”, “25” for “100”
as §6, §7

SMILES	pIC50 (PDGFRB)	pIC50 (VEGFR2)	pIC50 (FGFR1)
COc1cc2nccc(Oc3ccc(NC(=S)Nc4ccc(Cl)c(F)c4)c(Cl)c3)c2cc1C(N)=O [Example 3]	6.00 to 6.70	6.00 to 6.70	6.00 to 6.70
COc1cc2nccc(Oc3ccc(NC(=S)Nc4cc[nH]n4)c(Cl)c3)c2cc1C(N)=O [Example 4]	6.00 to 6.70	6.70 to 7.30	6.00 to 6.70
COc1cc2nccc(Oc3ccc(NC(=S)NCc4ccncc4)c(Cl)c3)c2cc1C(N)=O [Example 5]	6.70 to 7.30	6.70 to 7.30	6.00 to 6.70
COc1cc2nccc(Oc3ccc(NC(=S)Nc4cccc(C(F)(F)F)c4)c(Cl)c3)c2cc1C(N)=O [Example 7]	6.00 to 6.70	6.70 to 7.30	6.00 to 6.70
COc1cc2nccc(Oc3ccc(NC(=S)NCc4ccc(Cl)cc4)c(Cl)c3)c2cc1C(N)=O [Example 9]	> 7.30	6.00 to 6.70	6.00 to 6.70
COc1cc2nccc(Oc3ccc(NC(=S)Nc4cccnc4)c(Cl)c3)c2cc1C(N)=O [Example 10]	6.70 to 7.30	6.70 to 7.30	6.00 to 6.70
COc1cc2nccc(Oc3ccc(NC(=S)NCc4ccccn4)c(Cl)c3)c2cc1C(N)=O [Example 11]	6.70 to 7.30	6.00 to 6.70	6.00 to 6.70
COc1cc2nccc(Oc3ccc(NC(=S)NCCc4ccccc4)c(Cl)c3)c2cc1C(N)=O [Example 14]	6.70 to 7.30	6.00 to 6.70	6.00 to 6.70
COc1cc2nccc(Oc3ccc(NC(=S)NC4CCOCC4)c(Cl)c3)c2cc1C(N)=O [Example 15]	6.70 to 7.30	6.00 to 6.70	6.00 to 6.70
COc1cc2nccc(Oc3ccc(NC(=S)NCc4ccc(F)cc4)c(Cl)c3)c2cc1C(N)=O [Example 17]	6.70 to 7.30	6.00 to 6.70	6.00 to 6.70
COc1cc2nccc(Oc3ccc(NC(=S)NCCC#N)c(Cl)c3)c2cc1C(N)=O [Example 18]	6.00 to 6.70	6.00 to 6.70	6.00 to 6.70
COc1cc2nccc(Oc3ccc(NC(=S)NCCN4CCOCC4)c(Cl)c3)c2cc1C(N)=O [Example 19]	> 7.30	6.00 to 6.70	6.00 to 6.70
COc1cc2nccc(Oc3ccc(NC(=S)NCc4cccnc4)c(Cl)c3)c2cc1C(N)=O [Example 20]	> 7.30	6.70 to 7.30	6.00 to 6.70
COc1cc2nccc(Oc3ccc(NC(=S)N[C@@H](C)CO)c(Cl)c3)c2cc1C(N)=O [Example 22]	6.70 to 7.30	6.70 to 7.30	6.00 to 6.70
COc1cc2nccc(Oc3ccc(NC(=S)NCCN(C)C)c(Cl)c3)c2cc1C(N)=O [Example 23]	6.70 to 7.30	6.00 to 6.70	6.00 to 6.70
NC(=O)c1ccn2ncc(Oc3ccc(NC(=O)NC4CC4)c(Cl)c3)c2c1 [Example 125]	–	6.00 to 6.70	–
Cc1c(OC[C@@H](C)O)cn2ncnc(Oc3ccc(NC(=O)NC4CC4)c(Cl)c3)c12 [Example 126]	–	> 7.30	–
COc1cc2nccc(OCC3CC(NC(=O)NC4CC4)C3)c2cc1C(N)=O (centres unmarked) [Example 128]	–	6.00 to 6.70	–
COc1cc2nccc(OC3CC(NC(=O)NC4CC4)C3)c2cc1C(N)=O (centres unmarked) [Example 129]	–	6.00 to 6.70	–
CCOP(=O)(Cc1ccc(Oc2ccnc3cc(OC)c(C(N)=O)cc23)cc1Cl)NC1CC1 (centres unmarked) [Example 132]	–	6.00 to 6.70	–
COc1cc2nccc(Oc3ccc(CP(=O)(O)NC4CC4)c(Cl)c3)c2cc1C(N)=O [Example 133]	–	6.00 to 6.70	–
COc1cc2nccc(Oc3ccc(N/C(=C/[N+](=O)[O-])NC4CC4)c(Cl)c3)c2cc1C(N)=O [Example 134]	–	6.00 to 6.70	–
COc1cc2nccc(Oc3ccc(Nc4nc(=O)cc(C)[nH]4)c(Cl)c3)c2cc1C(N)=O [Example 135]	–	6.00 to 6.70	–
COc1cc2nccc(Oc3ccc4nc(Nc5ccc(Cl)c(F)c5)sc4c3)c2cc1C(N)=O [Example 159]	–	6.00 to 6.70	–
COc1cc2nccc(Oc3ccc(-c4c[nH]c(C(C)C)n4)c(Cl)c3)c2cc1C(N)=O [Example 179]	–	6.00 to 6.70	–
COc1cc2nccc(Oc3ccc4oc(C(=O)N5CCCC5)cc4c3)c2cc1C(N)=O [Example 192]	–	6.00 to 6.70	–
